Source: PMC4320118, “Micheliolide Derivative DMAMCL Inhibits Glioma Cell Growth In Vitro and In Vivo” (PLoS ONE, 2015)
Entries after “also recorded” stand apart in the source; their conditions may differ. Where two headings read alike, the source gives them in different places.

Columns and labels:
[1] = Biodistribution of DMAMCL in rats after a single oral dose (UPLC-MS/MS); type: in vivo, Wistar rats; design: Mean concentration in brain: unit not given here; details: single oral dose 100 mg/kg
Description: All rats had free access to food and water. Before drug administration, rats were fasted for 12 h and water was freely available.
Aqueous DMAMCL solutions were administered orally (100 mg/kg) (n = 6 rats per group). Blood and tissue samples from rats were collected at the setting time and analyzed on an ultraperformance liquid chromatography-mass spectrometry (UPLC-MS/MS) system (Waters/Micromass, Milford, MA) using noncompartmental analyses. All the biological specimens were detected at once or stored at -80°C for detection.

[2] = Toxicity of DMAMCL, oral once a day for 21 days; type: in vivo, Wistar rats; design: Cr: unit not given here; details: for ALB / ALP / ALT / AST / CHOL / CK / Cr / GLU / TG / TP / Urea: serum
Description: Wistar rats (150–170 g) were divided into the following 3 groups (6 rats /group): 1) vehicle control, 2) DMAMCL at 200 mg/kg, and 3) DMAMCL at 300 mg/kg. DMAMCL was administered orally once a day for 21 days. Rats were weighed on days 0, 3, 7, 11, 14, 17, and 21. Total food intake was measured as the weight of food consumed during a 24-h period on days 3, 8, 15, and 22. On the 23rd day, rats were anesthetized and sacrificed via CO2 asphyxiation. Peripheral blood was collected for hematological and serum biochemical analyses using a blood cell counter (Medonic M16, Boule medical AB, Sweden) and a Hitachi 7180 Automatic Analyzer (Japan). Tissues samples from the liver, spleen, lung, kidney, and brain were collected and embedded in paraffin for H&E staining.

C6 cells = assay: Apoptosis by Annexin V/PI flow cytometry, C6; type: cell-based, rat
Description: Glioma cells (10^4) in the logarithmic growth phase were seeded in 6-well plates for 24 h. Cells were treated with DMAMCL at 240, 120, 60, 30, 15, or 0 μM. They were removed from culture plates with 0.5% trypsin containing ethylene diamine tetraacetic acid (EDTA). Apoptosis of C6 cells was measured using an Annexin V and propidium iodide (PI) apoptosis detection kit (Invitrogen, USA) and a Beckman flow cytometer (Cytomics FC500, Beckman Coulter, USA).

AML models = details: cited from earlier work
[3] = Locomotor activity (neurological effects); type: in vivo, Wistar rats
Description: Locomotor activity was used to assess neurological effects of DMAMCL. Wistar rats (150–170 g) were divided into the following 3 groups (10 rats /group): 1) vehicle control, 2) DMAMCL at 100 mg/kg, and 3) DMAMCL at 300 mg/kg. DMAMCL was administered orally once a day for 21 days. Rat locomotor activities were monitored on days 1, 10, 21 and 28 using Aninal Behavioral Analysis System (AniLab Software and Instruments Co, Ltd, China). Briefly, rats were gently placed in the locomotor activity boxes equipped with infrared photobeams and individual total distance (cm) of rat running was recorded during a test period of 60 min. The test apparatus was cleaned to eliminate odors for the next test after each animal was tested.

[4] = system: Bcl-2 and Bax in C6 cells; assay: Western blotting of Bcl-2 and Bax, C6 cells; type: cell-based, rat; details: 60 μM and 120μM, 24 hr
Description: The cellular proteins were extracted from 10^7 cultured cells after drug treatments using RIPA lysis buffer (Promega, USA). Western blotting analysis was performed to determine cellular responses targeting apoptosis-related proteins including Bcl-2 and Bax. Briefly, C6 and U-87MG cells were treated with different doses of DMAMCL for 24 hr at 37°C. Then cells were washed twice with cold phosphate buffered saline (PBS) and lysed in RIPA buffer containing 1mmol/l PMSF (Pheylmethylsulfonyl fluoride, Sigma, USA) on ice for 30 min. The total proteins of cells were obtained by centrifugation at 12000 rpm for 15 min. Next, the lysate proteins were resolved by SDS-PAGE and transferred to the Immobilon-P membranes (Millipore, Billerica, MA, USA). The membranes were blocked by 5% nonfat milk in Tris-buffered saline with 0.1% Tween 20 (TBST) and immunoblotted with the antibodies against β-actin, Bcl-2 and Bax (Cellsignaling Technology, USA) at 4°C overnight. Then membranes were incubated with HRP-conjugated secondary antibody for 1.5 hr at room temperature. The targeting antibodies were stained with enhanced chemiluminescent reagents (Millipore, Billerica, MA, USA) and visualized by ChemiScope 3600 Mini systerm (Clinx Science Instruments, China).

U-87MG cells = assay: Apoptosis by Annexin V/PI flow cytometry, U-87MG; type: cell-based, human
[5] = 200 mg/kg orally once a day for 21 days
[6] = 300 mg/kg orally once a day for 21 days
[7] = 24 hr post-treatment, dose-dependent

`CC1=C2CC[C@@](C)(O)[C@@H]2[C@H]2OC(=O)[C@@H](CN(C)C)[C@@H]2CC1` [DMAMCL, dimethylaminomicheliolide] gave a Kp at 0.083 h ([1]; Wistar, rat, brain, rats, 0.083h, read-out: C brain / C plasma) of 1.45, a Kp at 0.5 h ([1]; Wistar, rat, brain, rats, 0.5h, read-out: C brain / C plasma) of 1.84 and a Kp at 3 h ([1]; Wistar, rat, brain, rats, 3h, read-out: C brain / C plasma) of 1.91. It also gave a concentration at 3 h ([1]; Wistar, rat, brain, read-out: Concentration in rat brain) of 4.91 ± 0.869 µg/mL, a Tmax ([1]; Wistar, rat, brain, read-out: Time of peak concentration in rat brain) of 30 min and a concentration at 3 h ([1]; Wistar, rat, plasma, read-out: Concentration in plasma) of 2.57 ± 0.968 µg/mL. The “Concentration in brain compared with plasma” value ([1]; rats) was “higher in the brain than in plasma”, the “Concentration in tissues compared with plasma” value ([1]; rats) was “dramatically higher in almost all tissues than in plasma” and the “Mean concentration in brain” value ([1]; rats, 0.083h) was 6360. The “Mean concentration in plasma” value ([1]; rats, 0.083h) was 4373 µg/mL, the “Mean concentration in brain” value ([1]; rats, 0.5h) was 18970 and the “Mean concentration in plasma” value ([1]; rats, 0.5h) was 10310 µg/mL. The “Mean concentration in brain” value ([1]; rats, 3h) was 4913, the “Mean concentration in plasma” value ([1]; rats, 3h) was 2567 µg/mL and the “Peak concentration in rat brain” value ([1]; 0.5 hours after administration) was 18970 ± 9603 ng/mL. For the same molecule, the GRAN% [2, 5] was 26.5 ± 3.3%, the HCT% [2, 5] was 35.6 ± 1.2% and the HGB [2, 5] was 145 ± 12.3 g/L. The LYM% [2, 5] was 71.3 ± 6.3%, the MCV [2, 5] was 55.5 ± 1.4 fL and the MONO% [2, 5] was 2.1 ± 0.3%. The PLT [2, 5] was 1195 ± 87 ×10^9/L, the RBC [2, 5] was 6.73±1.3 ×10^12/L and the RDW% [2, 5] was 18.5 ± 1.1%. For the same molecule, the WBC [2, 5] was 12.5 ± 2.5 ×10^9/L, the GRAN% [2, 6] was 26.3 ± 4.1% and the HCT% [2, 6] was 37.7 ± 0.8%. It also gave an HGB [2, 6] of 140 ± 11.1 g/L, an LYM% [2, 6] of 69.9 ± 6.0% and an MCV [2, 6] of 53.5 ± 2.3 fL. For the same molecule, the MONO% [2, 6] was 2.9 ± 0.9%, the PLT [2, 6] was 1132 ± 82 ×10^9/L and the RBC [2, 6] was 6.37 ± 1.01 ×10^12/L. The RDW% [2, 6] was 17.8 ± 0.7%, the WBC [2, 6] was 11.9 ± 1.3 ×10^9/L and the “Toxicity (body weight, daily food intake, histopathology, hematology, serum biochemistry)” value ([2]; 200 or 300 mg/kg orally once a day for 21 days) was “did not result in toxicity; also recorded: No significant changes were observed; also recorded: did not lead to toxicity”. The ALB [2, 5] was 32.5 ± 3.01 g/L, the ALP [2, 5] was 190 ± 19 U/L and the ALT [2, 5] was 51 ± 10 U/L. For the same molecule, the AST [2, 5] was 98 ± 12 U/L, the CHOL [2, 5] was 1.39 ± 0.67 mM and the CK [2, 5] was 423 ± 35 U/L. The Cr [2, 5] was 79 ± 23, the GLU [2, 5] was 5.22 ± 2.01 mM and the TG [2, 5] was 0.81 ± 0.23 mM. The TP [2, 5] was 61.0 ± 4.6 g/L, the Urea [2, 5] was 6.45 ± 2.3 mM and the ALB [2, 6] was 34 ± 1.98 g/L. It also gave an ALP [2, 6] of 179 ± 30 U/L, an ALT [2, 6] of 49 ± 11 U/L and an AST [2, 6] of 111 ± 15 U/L. The CHOL [2, 6] was 1.42 ± 0.78 mM, the CK [2, 6] was 523 ± 101 U/L and the Cr [2, 6] was 80 ± 17. For the same molecule, the GLU [2, 6] was 5.23 ± 1.34 mM, the TG [2, 6] was 0.69 ± 0.33 mM and the TP [2, 6] was 58.3 ± 3.3 g/L. For the same molecule, the Urea [2, 6] was 7.33 ± 1.02 mM, the Surviving cells (C6 cells; 240 μM) was “few surviving” and the “Early and late apoptosis and necrosis” value (C6 cells; [7]) was “significantly increased early and late apoptosis and necrosis”. For the same molecule, the “Therapeutic efficacy in AML models” value (AML models) was “superior therapeutic efficacy”, the Locomotor activity ([3]; 100mg/kg orally once a day for 21 days, observation period) was “as active as vehicle group” and the “Locomotor activity, total distance” value ([3]; 300mg/kg orally once a day, following days) was “still less active than vehicle group, but without significant statistical difference”. For the same molecule, the “Locomotor activity, total distance” value ([3]; 300mg/kg orally, first day) was “decreased compared with vehicle group”, the “Locomotor activity, total distance” value ([3]; 300mg/kg, within one week of DMAMCL withdrawal) was “no significant changes were observed” and the “Bax expression (Western blot)” value [4] was “up-regulated Bax expression”. For the same molecule, the “Bcl-2 expression (Western blot)” value [4] was “down-regulated Bcl-2 expression”, the Surviving cells (U-87MG cells; 240 μM) was “few surviving” and the “Early and late apoptosis and necrosis” value (U-87MG cells; [7]) was “significantly increased early and late apoptosis and necrosis”.
